Measurements: patent publication US11571423B2, “Small molecule modulators of human sting” (Curadev Pharma Limited, priority 2017, dated 2023)
Like-named read-outs stand apart in the source and are kept apart here.

What was measured:
[1] = molecular target: cynomolgus monkey STING protein (Macaca fascicularis, UniProt A0A2R3XZA6); test: Luciferase reporter assay, cynomolgus monkey STING overexpressed in HEK293T cells; format: cell-based
Method: 5×10^5 clonally selected HEK293T-hSTING-Luciferase cells were seeded in 384-well plates in growth medium and stimulated with novel compounds. After 20 hr of stimulation supernatant were removed and secretary reporter gene activity were measured using the Quanti-Luc detection system (Invivogen) on a Spectramax i3X luminometer.
In the tables below, EC50 value ranges for exemplary compounds are given.
Selected compounds were further tested against cynomolgus monkey STING protein overexpressed in HEK293T cells.

hSTING(R232) = hSTING(R232) (Homo sapiens, UniProt Q86WV6, H232R); test: Luciferase reporter assay in HEK293T-hSTING-Luciferase cells, R232 (wild type) human STING; format: cell-based; details: 20 hr stimulation, read-out: R232 human activity (EC50 range)
Outline: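 Clonal HEK293T cells stably expressing STING from a pUNO-1 plasmid plus an ISRE/ISG54-driven secreted luciferase reporter; 5×10^5 cells stimulated with compound for 20 hr. Supernatant luciferase read by luminescence, giving fold-induction over baseline and EC50.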

[2] = cynomolgus monkey STING overexpressed in HEK293T cells, read-out: Cynomolgus monkey STING activity (EC50 range)

Chain of cynomolgus monkey STING protein (A0A2R3XZA6 entry or part of it): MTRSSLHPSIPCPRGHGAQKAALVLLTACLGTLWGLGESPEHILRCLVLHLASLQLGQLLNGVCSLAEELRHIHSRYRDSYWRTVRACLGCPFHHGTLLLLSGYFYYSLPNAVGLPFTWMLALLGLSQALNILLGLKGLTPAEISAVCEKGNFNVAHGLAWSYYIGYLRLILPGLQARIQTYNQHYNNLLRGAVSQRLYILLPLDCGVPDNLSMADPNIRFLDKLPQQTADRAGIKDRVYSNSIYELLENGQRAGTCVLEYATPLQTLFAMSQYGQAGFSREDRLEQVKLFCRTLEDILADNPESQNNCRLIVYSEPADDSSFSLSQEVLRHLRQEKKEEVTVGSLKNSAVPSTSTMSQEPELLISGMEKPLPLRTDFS
Chain of hSTING(R232) (Q86WV6 whole entry H232R): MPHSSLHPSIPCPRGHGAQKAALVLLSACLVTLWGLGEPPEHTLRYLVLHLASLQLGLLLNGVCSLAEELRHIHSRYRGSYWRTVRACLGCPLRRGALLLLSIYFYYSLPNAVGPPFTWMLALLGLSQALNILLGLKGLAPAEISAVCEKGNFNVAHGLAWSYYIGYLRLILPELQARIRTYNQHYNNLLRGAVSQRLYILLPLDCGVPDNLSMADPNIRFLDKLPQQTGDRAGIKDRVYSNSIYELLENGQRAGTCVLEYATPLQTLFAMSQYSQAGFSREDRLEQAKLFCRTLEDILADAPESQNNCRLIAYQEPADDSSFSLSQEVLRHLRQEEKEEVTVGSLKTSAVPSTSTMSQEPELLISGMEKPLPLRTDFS

Row | EC50 [1, 2] [µM] | EC50 (hSTING(R232)) [µM] | SMILES | EC50 [1] [µM]
1 | < 1 | < 1 | Cc1cccc(CN2C(=O)N(C)C(C)c3ccc(C(=O)NCc4c(F)cc(F)cc4F)cc32)c1F (centres unmarked) [Example 164, 1-(2-fluoro-3-methylbenzyl)-3,4-dimethyl-2-oxo-N-(2,4,6-trifluorobenzyl)-1,2,3,4-tetrahydroquinazoline-7-carboxamide] | 
2 | 1 to 10 | < 1 | C[C@H]1c2ccc(C(=O)NCc3c(F)cc(F)cc3F)cc2N(Cc2cc(N)ccc2F)C(=O)N1C [Example 273, (S)-1-(5-amino-2-fluorobenzyl)-3,4-dimethyl-2-oxo-N-(2,4,6-trifluorobenzyl)-1,2,3,4-tetrahydroquinazoline-7-carboxamide] | 
3 | < 1 | < 1 | C[C@H]1c2ccc(C(=O)NCc3c(F)cc(F)cc3F)cc2N(Cc2c(F)cc(N)cc2F)C(=O)N1C [Example 286, (S)-1-(4-amino-2,6-difluorobenzyl)-3,4-dimethyl-2-oxo-N-(2,4,6-trifluorobenzyl)-1,2,3,4-tetrahydroquinazoline-7-carboxamide] | 
4 | < 1 | < 1 | C[C@H]1c2ccc(C(=O)NCc3c(F)cc(F)cc3F)cc2N(Cc2c(F)cncc2F)C(=O)N1C [Example 295, (S)-1-((3,5-difluoropyridin-4-yl)methyl)-3,4-dimethyl-2-oxo-N-(2,4,6-trifluroobenzyl)-1,2,3,4-tetrahydroquinazoline-7-carboxamide] | 
5 | < 1 | < 1 | Cc1ncc(Cl)c(CN2C(=O)N(C)C(C)c3ccc(C(=O)NCc4c(F)cc(F)cc4F)cc32)c1F (centres unmarked) [Example 176, 1-((5-chloro-3-fluoro-2-methylpyridin-4-yl)methyl)-3,4-dimethyl-2-oxo-N-(2,4,6-trifluorobenzyl)-1,2,3,4-tetrahydroquinazoline-7-carboxamide] | 
6 | < 1 | < 1 | C=CCOc1cc(F)c(CN2C(=O)N(C)[C@@H](C)c3ccc(C(=O)NCc4c(F)cc(F)cc4F)cc32)c(F)c1 [Example 144] | 
7 | < 1 | < 1 | C[C@H]1c2ccc(C(=O)NCc3c(F)cc(F)cc3F)cc2N(Cc2c(F)ccc(OCOP(=O)(O)O)c2Cl)C(=O)N1C [Example 90, (S)-(2-Chloro-3-((3,4-dimethyl-2-oxo-7-((2,4,6-trifluorobenzyl)carbamoyl)-3,4-dihydroquinazolin-1(2H)-yl)methyl)-4-fluorophenoxy)methyl dihydrogen phosphate] | 
8 | < 1 | < 1 | COc1ccc(F)c(F)c1CN1C(=O)N(C)C(C)c2ccc(C(=O)NCc3c(F)cc(F)cc3F)cc21 (centres unmarked) [Example 178, 1-(2,3-difluoro-6-methoxybenzyl)-3,4-dimethyl-2-oxo-N-(2,4,6-trifluorobenzyl)-1,2,3,4-tetrahydroquinazoline-7-carboxamide] | 
9 | < 1 | < 1 | C[C@H]1c2ccc(C(=O)NCc3c(F)cc(F)cc3F)cc2N(Cc2c(F)cc(OCCCOP(=O)(O)O)cc2F)C(=O)N1C [Example 82, (S)-3-(4-((3,4-dimethyl-2-oxo-7-((2,4,6-trifluorobenzyl)carbamoyl)-3,4-dihydroquinazolin-1(2H)-yl)methyl)-3,5-difluorophenoxy)propyl dihydrogen phosphate] | 
10 | < 1 | < 1 | COc1ccc(F)c(CN2C(=O)N(C)[C@@H](C)c3ccc(C(=O)NCc4c(F)cc(F)cc4F)cc32)c1F [Example 258, (S)-1-(2,6-difluoro-3-methoxybenzyl)-3,4-dimethyl-2-oxo-N-(2,4,6-trifluorobenzyl)-1,2,3,4-tetrahydroquinazoline-7-carboxamide] | 
11 | < 1 | < 1 | CC(=O)Nc1ccc(COC(=O)Oc2ccc(F)c(CN3C(=O)N(C)[C@@H](C)c4ccc(C(=O)NCc5c(F)cc(F)cc5F)cc43)c2Cl)cc1 [Example 139, (S)-4-Acetamidobenzyl-(2-chloro-3-((3,4-dimethyl-2-oxo-7-((2,4,6-trifluorobenzyl)carbamoyl)-3,4-dihydroquinazolin-1(2H)-yl)methyl)-4-fluorophenyl) carbonate] | 
12 | < 1 | < 1 | C[C@H]1c2ccc(C(=O)NCc3c(F)cc(F)cc3F)cc2N(Cc2c(F)cc(OCCOC(=O)CN)cc2F)C(=O)N1C [Example 187, (S)-2-(4-((3,4-dimethyl-2-oxo-7-((2,4,6-trifluorobenzyl)carbamoyl)-3,4-dihydroquinazolin-1(2H)-yl)methyl)-3,5-difluorophenoxy)ethyl 2-aminoacetate] | 
13 | < 1 | < 1 | C[C@H]1c2ccc(C(=O)NCc3c(F)cc(F)cc3F)cc2N(Cc2c(F)cc(OCCCC(=O)O)cc2F)C(=O)N1C [Example 294, (S)-4-(4-((3,4-dimethyl-2-oxo-7-((2,4,6-trifluorobenzyl)carbamoyl)-3,4-dihydroquinazolin-1(2H)-yl)methyl)-3,5-difluorophenoxy)butanoic acid] | 
14 | < 1 | < 1 | CC1c2ccc(C(=O)NCc3c(F)cc(F)cc3F)cc2N(Cc2cc(O)ccc2F)C(=O)N1C (centres unmarked) [Example 231, 1-(2-fluoro-5-hydroxybenzyl)-3,4-dimethyl-2-oxo-N-(2,4,6-trifluorobenzyl)-1,2,3,4-tetrahydroquinazoline-7-carboxamide] | 
15 | < 1 | < 1 | COc1ccc(F)c(CN2C(=O)N(C)[C@@H](C)c3ccc(C(=O)NCc4c(F)cc(F)cc4F)cc32)c1 [Example 183, (S)-1-(2-fluoro-5-methoxybenzyl)-3,4-dimethyl-2-oxo-N-(2,4,6-trifluorobenzyl)-1,2,3,4-tetrahydroquinazoline-7-carboxamide] | 
16 | < 1 | < 1 | C[C@H]1c2ccc(C(=O)NCc3c(F)cc(F)cc3F)cc2N(Cc2c(F)cc(OCOP(=O)(O)O)cc2F)C(=O)N1C [Example 83, (S)-(4-((3,4-dimethyl-2-oxo-7-((2,4,6-trifluorobenzyl)carbamoyl)-3,4-dihydroquinazolin-1(2H)-yl)methyl)-3,5-difluorophenoxy)methyl dihydrogen phosphate] | 
17 | > 10 | < 1 | C[C@H]1c2ccc(C(=O)NCc3c(F)cc(F)cc3F)cc2N(Cc2c(F)cc(F)cc2OCCCO)C(=O)N1C [Example 275, (S)-1-(2,4-difluoro-6-(3-hydroxypropoxy)benzyl)-3,4-dimethyl-2-oxo-N-(2,4,6-trifluorobenzyl)-1,2,3,4-tetrahydroquinazoline-7-carboxamide] | 
18 | < 1 | < 1 | C[C@H]1c2ccc(C(=O)NCc3c(F)cc(F)cc3F)cc2N(Cc2c(F)cc(OCCOP(=O)(O)O)cc2F)C(=O)N1C [Example 97, (S)-2-(4-((3,4-dimethyl-2-oxo-7-((2,4,6-trifluorobenzyl)carbamoyl)-3,4-dihydroquinazolin-1(2H)-yl)methyl)-3,5-difluorophenoxy)ethyl dihydrogen phosphate] | 
19 | < 1 | < 1 | C[C@H]1c2ccc(C(=O)NCc3c(F)cc(F)cc3F)cc2N(Cc2c(F)ccc(CO)c2F)C(=O)N1C [Example 269, (S)-1-(2,6-difluoro-3-(hydroxymethyl)benzyl)-3,4-dimethyl-2-oxo-N-(2,4,6-trifluorobenzyl)-1,2,3,4-tetrahydroquinazoline-7-carboxamide] | 
20 | < 1 | < 1 | COc1cc(F)c(CNC(=O)c2ccc3c(c2)N(Cc2c(F)cc(OC)cc2F)C(=O)N(C)[C@H]3C)c(F)c1 [Example 149, (S)—N,1-bis(2,6-difluoro-4-methoxybenzyl)-3,4-dimethyl-2-oxo-1,2,3,4-tetrahydroquinazoline-7-carboxamide] | 
21 | < 1 | < 1 | COc1cc(F)c(F)c(CN2C(=O)N(C)[C@@H](C)c3ccc(C(=O)NCc4c(F)cc(F)cc4F)cc32)c1 [Example 270, (S)-1-(2,3-difluoro-5-methoxybenzyl)-3,4-dimethyl-2-oxo-N-(2,4,6-trifluorobenzyl)-1,2,3,4-tetrahydroquinazoline-7-carboxamide] | 
22 | < 1 | < 1 | COc1ncc(Cl)c(CN2C(=O)N(C)[C@@H](C)c3ccc(C(=O)NCc4c(F)cc(F)cc4F)cc32)c1F [Example 184, (S)-1-((5-chloro-3-fluoro-2-methoxypyridin-4-yl)methyl)-3,4-dimethyl-2-oxo-N-(2,4,6-trifluorobenzyl)-1,2,3,4-tetrahydroquinazoline-7-carboxamide] | 
23 | < 1 | < 1 | C[C@H]1c2ccc(C(=O)NCc3c(F)cc(F)cc3F)cc2N(Cc2c(F)ccc(O)c2F)C(=O)N1C [Example 255, (S)-1-(2,6-difluoro-3-hydroxybenzyl)-3,4-dimethyl-2-oxo-N-(2,4,6-trifluorobenzyl)-1,2,3,4-tetrahydroquinazoline-7-carboxamide] | 

Row | SMILES | EC50 [1, 2] [µM] | EC50 (hSTING(R232)) [µM] | EC50 [1] [µM]
24 | C[C@H]1c2ccc(C(=O)NCc3c(F)cc(OP(=O)(O)O)cc3F)cc2N(Cc2c(F)cccc2Cl)C(=O)N1C [Example 101, (S)-4-((1-(2-chloro-6-fluorobenzyl)-3,4-dimethyl-2-oxo-1,2,3,4-tetrahydroqinazoline-7-carboxamido)methyl)-3,5-difluorophenyl dihydrogen phosphate] | 1 to 10 | 1 to 10 | 
25 | C[C@H]1c2ccc(C(=O)NCc3c(F)cc(F)cc3F)cc2N(Cc2c(F)cc(OC(=O)N(C)CCC(=O)OCc3ccccc3)cc2F)C(=O)N1C [Example 86, (S)-Benzyl-3-(((4-((3,4-dimethyl-2-oxo-7-((2,4,6-trifluorobenzyl)carbamoyl)-3,4-dihydroquinazolin-1(2H)-yl)methyl)-3,5-difluorophenoxy)carbonyl)(methyl)amino)propanoate] |  | 1 to 10 | 1 to 10
